{
  "source": "patent US12304938B2",
  "about": "“Processes and intermediates for preparing tirzepatide” (Eli Lilly and Company, priority 2022, dated 2025)",
  "test": "Physical stability of solid form on isolation/drying (crystallization screen)",
  "type": "physicochemical",
  "conditions": "wet solids from 1:1 v/v ACN/MTBE slurry, upon isolation/drying",
  "protocol": "A crystallization screen was performed on Fmoc-G-P-S(tBu)-S(tBu)-G-OH (SEQ ID NO: 19) free form using various solvents and solvent mixtures. Different crystallization methods were employed including solvent-based techniques such as slurry, cooling, ambient and sub-ambient temperatures holding, solvent/anti-solvent addition, or combination of techniques, and non-solvent-based techniques such as heat stress.\nThree solid forms were identified: Fmoc-G-P-S(tBu)-S(tBu)-G-OH (SEQ ID NO: 19) Form A, Fmoc-G-P-S(tBu)-S(tBu)-G-OH (SEQ ID NO: 19) Form C, and Fmoc-G-P-S(tBu)-S(tBu)-G-OH (SEQ ID NO: 19) Form D. Form A was a solvated form produced from 1-propanol (1-PrOH) or mixtures containing 1-PrOH (such as 1-PrOH/heptane). Form D is a solvated form produced from acetonitrile (ACN) or mixtures containing ACN (such as ACN/MTBE). Form C is a conversion product when Form D is isolated and dried.\nThe suspension was seeded with Fmoc-G-P-S(tBu)-S(tBu)-G-OH (SEQ ID NO: 19) Form C and then left at ambient conditions to continue stirring for 2 days.",
  "note": "Peptide text beside a SMILES is read from it. * marks the point of attachment. Fmoc = O=C(OCC1c2ccccc2-c2ccccc21)*; tBu = CC(C)(C)*",
  "data": [
    {"smiles": "CC(C)(C)OC[C@H](NC(=O)[C@H](COC(C)(C)C)NC(=O)[C@@H]1CCCN1C(=O)CNC(=O)OCC1c2ccccc2-c2ccccc21)C(=O)NCC(=O)O", "note": "[Fmoc-Gly-Pro-Ser(tBu)-Ser(tBu)-Gly-OH] (Fmoc-GPS(tBu)S(tBu)G-OH)", "values": [
      {"measurement": "physical stability of solid form", "result": "physically not stable"}
    ]}
  ]
}
